Source: ChEMBL document CHEMBL3885861, “Open TG-GATES”

Organism: Rattus norvegicus
Test: Open TG-GATES - Regimen: Daily Repeat
Type: toxicity, organism-based, Sprague-Dawley
Parameters: regimen Daily Repeat, gender Male, age 6 weeks
Conditions: in vivo, po, route gavage; for TP / gamma-GTP / ALP / ALT / AST / BUN / CRE / DBIL / GLC / IP / K / LDH / Na / PL / RALB / TBIL / TC / TG: tissue Plasma; for APTT / Bas / Eos / Fbg / Hb / Ht / Lym / MCH / MCHC / MCV / Mono / Neu / PT / Plat / RBC / Ret / WBC: tissue Blood; for KIDNEY_L / KIDNEY_R / KIDNEY_TOTAL: tissue Kidney; for LIVER: tissue Liver
[1] = 45 mg/kg, […], dose level Low, time 28 day
[2] = 150 mg/kg, 72 h, dose level Middle, time 3 day
[3] = 150 mg/kg, […], dose level Middle, time 7 day
[4] = 150 mg/kg, […], dose level Middle, time 14 day
[5] = 150 mg/kg, […], dose level Middle, time 28 day
[6] = 450 mg/kg, 72 h, dose level High, time 3 day
[7] = 450 mg/kg, […], dose level High, time 7 day
[8] = 450 mg/kg, […], dose level High, time 14 day
[9] = 450 mg/kg, […], dose level High, time 28 day

## CC(CCc1ccccc1)NCC(O)c1ccc(O)c(C(N)=O)c1 (stereo not drawn) [LABETALOL]
[1]
  TP: 6.4 g/dL
  gamma-GTP: 1 IU/L
[2]
  TERMINAL_BW: 253.6 g
  APTT: 16.1 s
  Bas: 0.2%
  Eos: 0.8%
  Fbg: 278 mg/dL
  Hb: 13.8 g/dL
  Ht: 40.7%
  Lym: 75%
  MCH: 21.7 pg
  MCHC: 33.9%
  MCV: 64 fL
  Mono: 2.6%
  Neu: 21.2%
  PT: 12.9 s
  Plat: 117.8 x10_4/uL
  RBC: 636.6 x10_4/ul
  Ret: 7.2%
  WBC: 104.5 x10_2/uL
  KIDNEY_L: 1 g
  KIDNEY_R: 1 g
  KIDNEY_TOTAL: 2 g
  LIVER: 11.7 g
  ALP: 2122.4 IU/L
  ALT: 47 IU/L
  AST: 76.8 IU/L
  BUN: 16.6 mg/dL
  CRE: 0.2 mg/dL
  DBIL: 0.018 mg/dL
  GLC: 180 mg/dL
  IP: 7.8 mg/dL
  K: 4 meq/L
  LDH: 65.6 IU/L
  Na: 145 meq/L
  PL: 155.4 mg/dL
  RALB: 2.7 g/dL
  TBIL: 0.028 mg/dL
  TC: 84.8 mg/dL
  TG: 120.6 mg/dL
  TP: 5.9 g/dL
  gamma-GTP: 1 IU/L
[3]
  TERMINAL_BW: 288.5 g
  APTT: 17.3 s
  Bas: 0%
  Eos: 1%
  Fbg: 310.4 mg/dL
  Hb: 14.8 g/dL
  Ht: 42.8%
  Lym: 73.4%
  MCH: 21.3 pg
  MCHC: 34.5%
  MCV: 61.9 fL
  Mono: 2.6%
  Neu: 22.2%
  PT: 12.9 s
  Plat: 110.9 x10_4/uL
  RBC: 693.2 x10_4/ul
  Ret: 5.2%
  WBC: 92.4 x10_2/uL
  KIDNEY_L: 1.2 g
  KIDNEY_R: 1.2 g
  KIDNEY_TOTAL: 2.4 g
  LIVER: 12.6 g
  ALP: 1724.6 IU/L
  ALT: 51 IU/L
  AST: 76 IU/L
  BUN: 14.8 mg/dL
  CRE: 0.2 mg/dL
  DBIL: 0.02 mg/dL
  GLC: 183.2 mg/dL
  K: 3.8 meq/L
  LDH: 68.4 IU/L
  Na: 142.8 meq/L
  PL: 150.8 mg/dL
  RALB: 2.8 g/dL
  TBIL: 0.034 mg/dL
  TC: 78 mg/dL
  TG: 141.2 mg/dL
  TP: 6.1 g/dL
  gamma-GTP: 1 IU/L
[4]
  TERMINAL_BW: 339.7 g
  APTT: 17.1 s
  Bas: 0.2%
  Eos: 1.2%
  Fbg: 300.4 mg/dL
  Hb: 14.9 g/dL
  Ht: 42.9%
  Lym: 71.2%
  MCH: 20.6 pg
  MCHC: 34.6%
  MCV: 59.5 fL
  Mono: 2.2%
  Neu: 24.8%
  PT: 13.1 s
  RBC: 721.4 x10_4/ul
  Ret: 4.3%
  WBC: 99.2 x10_2/uL
  KIDNEY_L: 1.2 g
  KIDNEY_R: 1.2 g
  KIDNEY_TOTAL: 2.4 g
  LIVER: 13.3 g
  ALP: 1359.8 IU/L
  ALT: 50.6 IU/L
  AST: 74.4 IU/L
  BUN: 17.2 mg/dL
  CRE: 0.2 mg/dL
  DBIL: 0.012 mg/dL
  GLC: 174.6 mg/dL
  IP: 8.6 mg/dL
  K: 3.9 meq/L
  LDH: 58.6 IU/L
  Na: 145.4 meq/L
  PL: 148.6 mg/dL
  RALB: 2.8 g/dL
  TBIL: 0.026 mg/dL
  TC: 81.6 mg/dL
  TG: 88.8 mg/dL
  TP: 6.3 g/dL
  gamma-GTP: 1.4 IU/L
[5]
  TERMINAL_BW: 424.9 g
  APTT: 19 s
  Bas: 0.4%
  Eos: 1.4%
  Fbg: 286.4 mg/dL
  Hb: 15.6 g/dL
  Ht: 44.3%
  Lym: 71.8%
  MCH: 19.8 pg
  MCHC: 35.2%
  MCV: 56.1 fL
  Mono: 3%
  Neu: 23.2%
  PT: 13.5 s
  Plat: 96.8 x10_4/uL
  RBC: 789.8 x10_4/ul
  Ret: 2.1%
  WBC: 110.3 x10_2/uL
  KIDNEY_L: 1.4 g
  KIDNEY_R: 1.4 g
  KIDNEY_TOTAL: 2.8 g
  LIVER: 15.6 g
  ALP: 865.6 IU/L
  ALT: 60.2 IU/L
  AST: 78.2 IU/L
  BUN: 18.4 mg/dL
  CRE: 0.3 mg/dL
  DBIL: 0.026 mg/dL
  GLC: 185.6 mg/dL
  IP: 7.3 mg/dL
  K: 3.6 meq/L
  LDH: 69.4 IU/L
  Na: 143.4 meq/L
  PL: 132 mg/dL
  RALB: 2.8 g/dL
  TBIL: 0.038 mg/dL
  TC: 74 mg/dL
  TG: 113 mg/dL
  TP: 6.2 g/dL
  gamma-GTP: 1.2 IU/L
[6]
  TERMINAL_BW: 240.1 g
  APTT: 17 s
  Bas: 0%
  Eos: 0.8%
  Fbg: 275.8 mg/dL
  Hb: 13.6 g/dL
  Ht: 39.8%
  Lym: 79%
  MCH: 21.2 pg
  MCHC: 34.2%
  MCV: 61.9 fL
  Mono: 2.4%
  Neu: 17.2%
  PT: 12.9 s
  Plat: 114.3 x10_4/uL
  RBC: 644 x10_4/ul
  Ret: 6.4%
  WBC: 89.1 x10_2/uL
  KIDNEY_L: 1 g
  KIDNEY_R: 1 g
  KIDNEY_TOTAL: 2 g
  LIVER: 9.9 g
  ALP: 1714 IU/L
  ALT: 45.4 IU/L
  AST: 61.8 IU/L
  BUN: 16.4 mg/dL
  CRE: 0.2 mg/dL
  DBIL: 0.014 mg/dL
  GLC: 162.8 mg/dL
  IP: 7.1 mg/dL
  K: 4.4 meq/L
  LDH: 45.2 IU/L
  Na: 142.6 meq/L
  PL: 142.8 mg/dL
  RALB: 2.6 g/dL
  TBIL: 0.038 mg/dL
  TC: 88 mg/dL
  TG: 43.6 mg/dL
  TP: 5.6 g/dL
  gamma-GTP: 1 IU/L
[7]
  TERMINAL_BW: 269.7 g
  APTT: 17.5 s
  Bas: 0%
  Eos: 0.8%
  Fbg: 266.4 mg/dL
  Hb: 14.1 g/dL
  Ht: 40.5%
  Lym: 77.8%
  MCH: 21.1 pg
  MCHC: 34.7%
  MCV: 60.7 fL
  Mono: 3.4%
  Neu: 17.4%
  PT: 13.5 s
  Plat: 97.4 x10_4/uL
  RBC: 667.6 x10_4/ul
  Ret: 4%
  WBC: 80.1 x10_2/uL
  KIDNEY_L: 1.2 g
  KIDNEY_R: 1.1 g
  KIDNEY_TOTAL: 2.3 g
  LIVER: 11 g
  ALP: 1741.8 IU/L
  ALT: 55.8 IU/L
  AST: 65.8 IU/L
  BUN: 16.2 mg/dL
  CRE: 0.2 mg/dL
  DBIL: 0.008 mg/dL
  GLC: 162.2 mg/dL
  K: 4.3 meq/L
  LDH: 50 IU/L
  Na: 142.4 meq/L
  PL: 149.8 mg/dL
  RALB: 2.6 g/dL
  TBIL: 0.03 mg/dL
  TC: 91.2 mg/dL
  TG: 37.2 mg/dL
  TP: 5.7 g/dL
  gamma-GTP: 1.2 IU/L
[8]
  TERMINAL_BW: 293.4 g
  APTT: 18.2 s
  Bas: 0%
  Eos: 1%
  Fbg: 278 mg/dL
  Hb: 15.3 g/dL
  Ht: 44.1%
  Lym: 78.3%
  MCH: 20.6 pg
  MCHC: 34.8%
  MCV: 59.1 fL
  Mono: 2%
  Neu: 17.7%
  PT: 13.6 s
  Plat: 94.8 x10_4/uL
  RBC: 745 x10_4/ul
  Ret: 2.9%
  WBC: 85.7 x10_2/uL
  KIDNEY_L: 1.1 g
  KIDNEY_R: 1.2 g
  KIDNEY_TOTAL: 2.3 g
  LIVER: 10.8 g
  ALP: 1433.3 IU/L
  ALT: 45.3 IU/L
  AST: 61.3 IU/L
  BUN: 18.7 mg/dL
  CRE: 0.3 mg/dL
  DBIL: 0.01 mg/dL
  GLC: 176.7 mg/dL
  K: 3.8 meq/L
  LDH: 47.7 IU/L
  Na: 145.3 meq/L
  PL: 138 mg/dL
  RALB: 2.7 g/dL
  TBIL: 0.0267 mg/dL
  TC: 79.3 mg/dL
  TG: 38.3 mg/dL
  TP: 6 g/dL
  gamma-GTP: 1.3 IU/L
[9]
  TERMINAL_BW: 333.5 g
  APTT: 19.7 s
  Bas: 0%
  Eos: 1%
  Fbg: 228.5 mg/dL
  Hb: 15.9 g/dL
  Ht: 44.5%
  Lym: 78.5%
  MCH: 19.5 pg
  MCHC: 35.6%
  MCV: 54.7 fL
  Mono: 2%
  Neu: 18%
  PT: 14.7 s
  Plat: 79 x10_4/uL
  RBC: 813.5 x10_4/ul
  Ret: 1%
  WBC: 104.3 x10_2/uL
  KIDNEY_L: 1.4 g
  KIDNEY_R: 1.3 g
  KIDNEY_TOTAL: 2.6 g
  LIVER: 11.6 g
  ALP: 1187.5 IU/L
  ALT: 54 IU/L
  AST: 70 IU/L
  BUN: 25 mg/dL
  CRE: 0.3 mg/dL
  DBIL: 0.02 mg/dL
  GLC: 159.5 mg/dL
  IP: 7.8 mg/dL
  K: 4.2 meq/L
  LDH: 38.5 IU/L
  Na: 141 meq/L
  PL: 125.5 mg/dL
  RALB: 2.7 g/dL
  TBIL: 0.04 mg/dL
  TC: 62 mg/dL
  TG: 61.5 mg/dL
  TP: 6 g/dL
  gamma-GTP: 2 IU/L
